Measured values as given in US20220313650A1, “METHODS FOR TREATING NEURODEVELOPMENTAL DISORDERS” (The Broad Institute, Inc., priority 2019, published 2022).
“Also recorded” adds a separate entry of the source.

How the values were obtained:
[1] = tested on: WT mice; assay: Open field test of locomotor activity, WT mice; assay type: in vivo
Procedure: (§1) For performing the open field test, mice were allowed to habituate to the behavioral testing room for 1 hour before the experiment. The locomotor activity in mice was evaluated over a 90 minute period in an automated Omnitech Digiscan apparatus (AccuScan Instruments). Locomotor activity was assessed as total distance traveled (m). For drug treatment experiments, mice received an intraperitoneal injection 15 minutes before the assay and then where placed kindly in the left corner, head facing into the corner.
(§2) The effects of mGluR2/3 activation on the locomotor activity of WT mice and Ptchd1 mutant mice were evaluated. In brief, all mice were treated with mGluR2/3 agonist, LY379268, at three different dosages (1 mg/kg, 5 mg/kg and 10 mg/kg) for open-field testing.
(§3) Here, whether mGluR3 activation would rescue the hyperactivity phenotype of Ptchd1 KO mice was evaluated. Locomotor activity estimated as total distance travelled (in) was assessed over a 90 min period in an automated Omnitech Digiscan apparatus. For drug treatment experiments, mice were placed in the open-field arena for 30 minutes prior to Mavalon 63 (5 mg/kg and 10 mg/kg in saline; i.p.), or vehicle injections before being returned to the arena.

[2] = tested on: cortico-TRN synapses; assay: Optogenetically evoked EPSCs in patched TRN neurons, cortico-TRN pathway; assay type: cell-based, mice; conditions: cortico-TRN synapses, before vs after bath application
Procedure: (§4) For conducting slice electrophysiology analysis, whole-cell patch-clamp recordings were performed using horizontal slices for the rebound bursting assays and angled-coronal thalamocortical slices for the synaptic optogenetics experiments (Agmon et al., 1991). 21-35 day old male C57BL6 mice and Ptchd1 Y/− (knockout) mice were used. Animals were transcardially perfused under isoflurane anesthesia with an ice-cold cutting solution (194 mM Sucrose, 30 mM NaCl, 4.5 mM KCl, 1.2 mM NaH2PO4, 10 mM Glucose, 2 mM MgCl2, 0.2 mM CaCl2, and 26 mM NaHCO3). Mice were then decapitated and the brains were carefully dissected out. Both cerebellum and olfactory bulb were removed from the brain and were placed and glued onto the stage of a Leica Vibratome with the ventral surface down and the pial surface towards the blade. 250 micron thick slices containing the TRN were then collected and recovered in regular artificial cerebrospinal fluid (aCSF; 119 mM NaCl, 2.3 mM KCl, 1 mM NaH2PO4; 11 mM Glucose, 1.3 mM MgCl2, 2.5 mM CaCl2), 26 mM NaHCO3) heated to 32° C. for 10 minutes and then at room temperature for at least 1 hr. All buffers were continuously bubbled with 95% O2/5% C02. Slices were then transferred to a submersion recording chamber where they were perfused with aCSF at a rate of 2 ml/min at room temperature. Patch recording pipettes were pulled using a Flaming/Brown micropipette puller (Sutter Instruments) and Borosilicate glass (KG33, King Precision Glass). The DC resistances were ˜4-6 MΩ. Potassium methanesulfonate based internal solution (140 mM KMeSO3; 10 mM KCl; 10 mM HEPES; 0.1 mM EGTA; 4 mM Mg-ATP; 0.2 mM Na-GTP; 10 mM hosphocreatine) was used. Neurons were visualized using infrared differential interference contrast (IR-DIC) microscopy (Olympus, BX51W1) with an upright microscope digital camera.
To study the changes in the acute somatosensory thalamocortical or horizontal brain areas, 21-25 days old Nex-Cre or VgluT2-Cre mice were anesthetized with isoflurane while placed in a small animal stereotaxic apparatus (David Kopf Instruments, CA, USA) and were injected bilaterally with 280 nl of mcherry-dflox.hChR2.EF1.AAV1 using a Nanoject (Drummond Scientific, Broomall, Pa.) via glass pipettes with […] diameter tips in somatosensory cortex (S1) and ventrobasal thalamic complex (VB). Coordinates from the bregma for S1: AP −0.7, ML 2.4 and DV 1.2 and for VB: AP −1.6, ML 1.5 and DV 3.5. The pipette was held in the final position for 10 min after injection before withdrawal from the brain. The incision was closed with vetbond and after surgery mice were injected with analgesics (SR-Bupronex 1 mg/kg) every 72 hours or as needed. […]
(§5) After allowing 1-2 weeks for mcherry-dflox.hChR2.EF1.AAV1 expression, acute somatosensory thalamocortical or horizontal brain slices were freshly obtained for in vitro recording and optogenetic stimulation (250 um thick, thalamocortical slices containing TRN from angled-coronal sections; Agmon and Connors, 1991) for optogenetic analysis. In brief, patch clamp recordings in voltage clamp configuration were performed while the Cortico-TRN or Thalamic-TRN pathway was activated by applying a blue LED (400-450 nm) light pulses (Lumen 300-LED Fluorescence Excitation Illumination System). For synaptic stimulation, neurons were held at −70 mV while 0.1-1.5 ms flashes were delivered directly to the recorded cell soma delivered through the 40× water immersion objective. […]

[3] = tested on: thalamo-TRN synapses; assay: Optogenetically evoked EPSCs in patched TRN neurons, thalamo-TRN pathway; assay type: cell-based, mice; conditions: thalamo-TRN synapses, before vs after bath perfusion
Procedure: as §4, with “camera. […]” for “camera.”
as §5

[4] = tested on: Ptchd1 KO mice; assay: Open field test of locomotor activity, Ptchd1 KO mice; assay type: in vivo
Procedure: as §1, §2, §3

[5] = tested on: WT TRN neurons; assay: Whole-cell patch-clamp rebound burst firing in acute brain slices, WT mice; assay type: cell-based
Procedure: as §4
The recordings were made with a microelectrode amplifier with bridge and voltage clamp modes of operation (Multiclamp 700B, Molecular Devices, San Jose, Calif., USA). Signals were low-pass filtered at 2 kHz and sampled at 10-20 kHz with a Digidata 1440A (Molecular Devices, San Jose, Calif., USA). Data were stored on a computer for subsequent off-line analysis. Cells with the series resistance (Rs, typically 8-12 MΩ) changed by >20% were excluded for data analysis. In addition, cells with Rs more than […] at any time during the recordings were discarded.

[6] = tested on: wild type mice; assay: EEG/EMG sleep recording, WT mice; assay type: in vivo; conditions: Mavalon 63 10 mg/kg ip, 12 h recordings, 10 mg/kg
Text: For EEG recording studies, 8- to 12-week-old male mice with C57Bl/6J background, Ptchd1Y/− (knockout) and Ptchd1Y/+ (wild type) were deeply anesthetized with a 1% to 1.5% isoflurane. A screw electroencephalography (EEG) electrode (catalog no. 8403; Pinnacle Technology, Inc.) was implanted into the skull above the primary somatosensory cortex, S1 (AP: −1.8 and ML: +3.0 mm) using a stereotaxic device (David Kopf Instruments). A reference electrode was screwed in the occipital region of the skull and stainless steel electromyography (EMG) electrodes were placed in the nuchal muscle. All the electrodes were connected to a head-mount (catalog no. 8201-SS; Pinnacle Technology) and secured by using dental cement. The mice were allowed to recover for at least 2 weeks. Spontaneous EEG/EMG signals were recorded for 12 hours with a differential amplifier (8200-K1-SL amplifier; Pinnacle Technology). […] Data were analyzed offline using Matlab (R2016a; MathWorks). The spectral power was calculated in 0.5-Hz bins (fast Fourier transform with Hamming window) with artifact-free 4-hour EEG signals from each animal. […]
(§6) EEG and EMG from the frontal and parietal cortex and from the nuchal muscular complex were simultaneously recorded.
(§7) Surface electroencephalography (EEG) and electromyography (EMG) from the frontal and parietal cortex and from the nuchal muscular complex were simultaneously recorded.

[7] = tested on: Ptchd1 KO TRN neurons; assay: Whole-cell patch-clamp rebound burst firing in acute brain slices, Ptchd1 KO mice; assay type: cell-based; conditions: Mavalon 63
Procedure: as §4, with “Patch recording pipettes were pulled using a Flaming/Brown micropipette puller (Sutter Instruments) and Borosilicate glass (KG33, King Precision Glass). The DC resistances were ˜4-6 MΩ. Potassium methanesulfonate based internal solution (140 mM KMeSO3; 10 mM KCl; 10 mM HEPES; 0.1 mM EGTA; 4 mM Mg-ATP; 0.2 mM Na-GTP; 10 mM hosphocreatine) was used. Neurons were visualized using infrared differential interference contrast (IR-DIC) microscopy (Olympus, BX51W1) with an upright microscope digital camera.” left out

[8] = tested on: Ptchd1 KO mice; assay: EEG/EMG sleep recording, Ptchd1 KO mice; assay type: in vivo; conditions: Ptchd1 KO mice, Mavalon 63 10 mg/kg ip, 12 h recordings; 10 mg/kg
Text: For EEG recording studies, 8- to 12-week-old male mice with C57Bl/6J background, Ptchd1Y/− (knockout) and Ptchd1Y/+ (wild type) were deeply anesthetized with a 1% to 1.5% isoflurane. A screw electroencephalography (EEG) electrode (catalog no. 8403; Pinnacle Technology, Inc.) was implanted into the skull above the primary somatosensory cortex, S1 (AP: −1.8 and ML: +3.0 mm) using a stereotaxic device (David Kopf Instruments). A reference electrode was screwed in the occipital region of the skull and stainless steel electromyography (EMG) electrodes were placed in the nuchal muscle. All the electrodes were connected to a head-mount (catalog no. 8201-SS; Pinnacle Technology) and secured by using dental cement. The mice were allowed to recover for at least 2 weeks. Spontaneous EEG/EMG signals were recorded for 12 hours with a differential amplifier (8200-K1-SL amplifier; Pinnacle Technology). All signals were digitized at a sampling frequency of 1,000 Hz, filtered (1-100 Hz bandpass for EEG; 10-1 kHz bandpass for EMG), and acquired using Sirenia Acquisition program (Pinnacle Technology). Data were analyzed offline using Matlab (R2016a; MathWorks). The spectral power was calculated in 0.5-Hz bins (fast Fourier transform with Hamming window) with artifact-free 4-hour EEG signals from each animal. The power for the spectral band was normalized in reference to the power of the entire EEG spectrum (1-100 Hz) in each animal and averaged across all the animals in the same treatment or drug condition.
as §6, §7

| Structure (SMILES) | locomotor activity ([1]; WT mice, AZD8529 three dosing levels i.p., 90 minutes) | paired-pulse ratio (PPR) [2] | paired-pulse ratio (PPR) [3] | locomotor activity ([4]; AZD8529 10, 20, 50 mg/Kg i.p., 90 minutes) | rebound burst firing, occlusion experiment ([5]; LY379268 applied in the presence of (after pretreatment with) ML337) | number of rebound burst firings ([5]; TRN neurons, ML337 5 μM bath application alone) | locomotor activity (total distance travelled) ([1]; WT mice, Mavalon 63 5 mg/kg and 10 mg/kg i.p., 90 min) | spontaneous locomotion activity ([1]; wild type mice, Mavalon 63 30 mg/kg i.p.) | length of NREM sleep bout [6] | repetitive rebound bursting [7] | paired-pulse ratio (PPR) ([2]; listed as mGluR3 PAM) | number of rebound burst firings ([5]; WT TRN neurons, Mavalon 63 in bath, after somatic hyperpolarization pulse, holding potentials −80 mV to −50 mV) | paired-pulse ratio (PPR) ([3]; listed as mGluR3 PAM) | length of NREM sleep bout [8] | locomotor activity (total distance travelled) ([4]; Mavalon 63 5 mg/kg and 10 mg/kg i.p., 90 min) | locomotor activity (hyperactivity) ([4]; Mavalon 63 30 mg/kg i.p., p=0.06, Bonferroni's multiple comparisons test) | hyperactivity phenotype, summary over doses ([4]; Mavalon 63 5, 10, 30 mg/Kg i.p., dose-dependent manner) |
| --- | --- | --- | --- | --- | --- | --- | --- | --- | --- | --- | --- | --- | --- | --- | --- | --- | --- |
| Cc1cc(-c2nc(CN3CCNCC3)no2)cc2c1C(=O)N(Cc1ccc(OC(F)(F)F)cc1)C2 [AZD8529, 1H-Isoindol-1-one, 2,3-dihydro-7-methyl-5-[3-(1-piperazinylmethyl)-1,2,4-oxadiazol-5-yl]-2-[[4-(trifluoromethoxy)phenyl]methyl]-] | reduced locomotor activity | significant increase in the paired-pulse ratio (PPR); also recorded: significantly increased | no significant changes in the size of PPR | reduced locomotor activity |  |  |  |  |  |  |  |  |  |  |  |  |  |
| COc1ccc(C#Cc2ccc(C(=O)N3CCC[C@@H](O)C3)c(F)c2)cc1 [ML337, (R)-(2-fluoro-4-((- 4-methoxy-phenyl)ethynyl)phenyl) (3-hydroxypiperidin-1-yl)methanone] |  |  |  |  | blocked LY379268-induced enhancement of rebound bursting | decrease in the repetitive rebound bursting; also recorded: reduces the repetitive burst firings; also recorded: number of rebound burst firing was reduced |  |  |  |  |  |  |  |  |  |  |  |
| CN1C(=O)c2cccn2-c2cc(-c3ccc(F)cn3)ccc2C12CC2 [Mavalon 63, 5-Methyl-9-(5-fluoropyridin-2-yl)-spiro [benzo[f]pyrrolo[1,2-a][1,4]diazepine-6,1′-cyclopropan]-4(5H)-one] |  | not significantly increased | no significant changes in the size of PPR |  |  |  | no significant effect on locomotor activity | No effect on the spontaneous locomotion activity | no change was observed | significant increase in repetitive rebound bursting | No significant changes in PPR | significant increase in repetitive rebound bursting; also recorded: increase in the number of rebound burst firings; also recorded: Significant changes were detected at a membrane holding potentials between −70 mV and −60 mV | no significant changes in the PPR | specifically increased the Non-REM (NREM) sleep bout length; also recorded: increased the length of NREM sleep bout | no significant effect on locomotor activity | trend of reducing the hyperactivity | able to normalize the hyperactivity phenotype |
